Test system: cortical neurons
Assay: neurite growth of embryonic mouse neurons (total neurite length/neuron, MAP2 immunostaining)
Type: cell-based
Protocol: To obtain embryonic mouse neurons for analysis, pregnant female mice were killed by cervical dislocation after exposure to CO2 inhalation. Embryonic neurons were prepared from E18 or P0 mouse hippocampi or cortex and cultured as described previously (Calderon and Kim, J. Neurochem., 90(4):979-88 (2004), errata in J Neurochem., September; 90(6):1540 (2004)), with slight modification. Briefly, hippocampi or cotices were dissected and dissociated by a method using either 0.25% trypsin (Gibco Invitrogen Corporation, Grand Island, N.Y.) in Hank's balanced salt solution (HBSS) or papain (20-30 U/mL) in dissociation media containing cysteine at 37° C. for 15 min. After the dissociation solution was aspirated off, cells were washed with same volume of HBSS, suspended in neurobasal medium (Gibco) containing 2% B27 supplement (Gibco), 1% glutamine/glutamax mix (1:4) (Gibco), 100 U/ml penicillin (Gibco) and 100 μg/ml streptomycin (Gibco), and seeded on poly-D-lysine chambered slides (Lab-Tek, Naperville, Ill.) at a density of 30,000 cells/cm^2. On the second day after seeding, the cells were treated with fatty acids, synaptamide or one of Compounds 1-50 for 48 h. Docosahexaenoic acid (DHA) and oleic acid (OA) were complexed with fatty acid-free bovine serum albumin (BSA; Sigma, St Louis, Mo.) in the presence of α-tocopherol (Sigma) under an argon atmosphere and darkness to prevent oxidation of the fatty acids. The mixture was mixed with fresh Neurobasal medium containing B27 supplement, glutamine/glutamax mix and antibiotics. Final concentrations of α-tocopherol and BSA in the culture medium were 40 μM and 0.01%, respectively. Alternatively, DHA, OA, synaptamide, or one of Compounds 1-50 were dissolved in DMSO and applied directly together with α-tocopherol. In such case, the final concentration of DMSO is less than 0.005%. All stock solutions were aliquoted under argon and stored at −70° C.
Cells were fixed with […] (Sigma) in PBS (pH 7.4) for 30 min. After permeabilization with 0.1% Triton X-100 (Sigma), cells were blocked for 1 h at 37° C. with PBS containing 10% goat serum (Gibco), and then incubated with the primary antibody against microtubule-associated protein (MAP2, mouse monoclonal 1:250; Sigma). After washing with PBS, cells were incubated with the corresponding Cy2-, Cy3-conjugated secondary antibody (Jackson Immunoresearch Laboratories Inc., West Grove, Pa.). For the nuclear staining, 0.06% 4,6-Diamidino-2-Phenylindole (Sigma) was used. After immunostaining, images were collected using an inverted motorized 1×81 Olympus (Melville, N.Y.) and the neurite length was analyzed with Metamorph software (Molecular Devices Corporation, Downingtown, Pa.). To minimize bias, neurons were evaluated blindly without the knowledge of sample identity. Four to six fields/well were chosen at random and only non-clustered neurons were evaluated to ensure the precision of the measurements. From each well, over 100 neurons were evaluated at 20× magnification for total neurite length/neuron. The data were obtained from triplicate wells and the experiments were repeated at least three times.
FIG. 2 provides graphical results of the data shown in Table 2, expressed as total neurite length per neuron. FIG. 3 provides graphical results of these experiments for compounds 11-50 (having designations as provided in Table 1, above), expressed as relative neurite length as compared to untreated controls. FIG. 4 provides graphical results of these experiments for compounds 1-10 (having designations as provided in Table 1, above), as applied to hippocampal neurons.
An additional assay was performed in which Compounds (A8), 4(A10), and 7(A9) were applied at varying dosages (from 10^−5 nM to 10 nM; 10^−5 nM, 10^−4 nM, 10^−2 nM, 0.1 nM, 1 nM, and 10 nM) as compared to DHA, synaptamide, and oleic acid. Neurite growth was measured at each dosage. Results of this assay are provided at FIG. 1.

CC/C=C\C/C=C\C/C=C\C/C=C\C/C=C\C/C=C\CCC(=O)NCC(C)(C)O [Compound 1, (4Z,7Z,10Z,13Z,16Z,19Z)—N-(2-hydroxy-2-methylpropyl)docosa-4,7,10,13,16,19-hexaenamide]
Neurite Length/Neuron (mean) (cortical neurons, 10 nM (FIG. 2), 48 h): 41.3 μm
effect with respect to cortical neurite growth as compared to DHA (cortical neurons, FIGS. 1, 2): superior effect
dosage at which activity is exhibited as compared to DHA and synaptamide (dosages 10^-5 nM to 10 nM, FIG. 1): activity at significantly lower dosages
